Data from patent US20260200897A1, “4-((5-(3-(4-(PYRIDIN-2-YL)CYCLOPENTYL)-1H-PYRAZOL-3-YL)AMINO)-BENZENESULFONAMIDE DERIVATIVES AND SIMILAR COMPOUNDS AS CDK INHIBITORS FOR THE TREATMENT OF CANCER” (BeOne Medicines I GmbH, priority 2023, published 2026).

What was measured:
CDK1/Cyclin B1 = CDK1/Cyclin B1 (Homo sapiens, UniProt P06493); assay: CDK1/Cyclin B1 TR-FRET biochemical assay, 1 mM ATP; details: 0.15 μM Rb (Ser780)-biotin substrate, 90 min reaction, Table 2
CDK2/Cyclin E1 = CDK2/Cyclin E1 (Homo sapiens, UniProt P24941); assay: CDK2/Cyclin E1 TR-FRET biochemical assay, 1 mM ATP; details: 0.15 μM Rb (Ser780)-biotin substrate, 90 min reaction, Table 2

Chain of CDK1/Cyclin B1 (P06493 whole entry): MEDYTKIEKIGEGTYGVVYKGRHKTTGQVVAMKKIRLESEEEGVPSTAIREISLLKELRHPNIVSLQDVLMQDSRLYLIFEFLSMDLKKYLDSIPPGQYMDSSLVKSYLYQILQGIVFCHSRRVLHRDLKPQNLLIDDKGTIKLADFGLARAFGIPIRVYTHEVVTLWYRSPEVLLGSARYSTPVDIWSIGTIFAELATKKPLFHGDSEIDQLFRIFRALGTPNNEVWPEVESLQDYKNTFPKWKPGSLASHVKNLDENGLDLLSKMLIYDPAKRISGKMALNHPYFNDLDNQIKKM
Chain of CDK1/Cyclin B1 (P14635 whole entry partner): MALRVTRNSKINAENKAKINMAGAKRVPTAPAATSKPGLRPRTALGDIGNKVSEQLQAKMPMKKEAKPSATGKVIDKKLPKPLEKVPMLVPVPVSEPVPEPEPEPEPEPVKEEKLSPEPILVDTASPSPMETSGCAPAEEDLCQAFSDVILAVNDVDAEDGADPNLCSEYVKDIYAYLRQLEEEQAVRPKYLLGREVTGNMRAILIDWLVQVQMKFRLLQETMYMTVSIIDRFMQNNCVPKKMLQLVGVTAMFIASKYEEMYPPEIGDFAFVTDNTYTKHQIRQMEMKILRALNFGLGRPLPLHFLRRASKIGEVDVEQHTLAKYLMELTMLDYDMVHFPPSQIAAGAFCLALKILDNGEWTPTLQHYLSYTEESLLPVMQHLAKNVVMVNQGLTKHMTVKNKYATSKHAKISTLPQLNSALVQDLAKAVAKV

Row | SMILES | IC50 (CDK1/Cyclin B1) | IC50 (CDK2/Cyclin E1)
1 | Cc1cc(C(C)(C)C)cc(C2CCC(c3cc(Nc4ccc5c(c4F)CS(=O)(=O)C5)n[nH]3)C2)n1 (stereo not drawn) [Example 175, 5-((5-(3-(4-(tert-butyl)-6-methylpyridin-2-yl)cyclopentyl)-1H-pyrazol-3-yl)amino)-4-fluoro-1,3-dihydrobenzo[c]thiophene 2,2-dioxide] | > 10000 nM | 439 nM
2 | CC(C)(C)c1ccc(C2CCC(c3cc(Nc4cc5c(cc4F)S(=O)(=O)NC5)n[nH]3)C2)nc1 (stereo not drawn) [Example 10, 5-((3-(3-(5-(tert-butyl)pyridin-2-yl)cyclopentyl)-1H-pyrazol-5-yl)amino)-6-fluoro-2,3-dihydrobenzo[d]isothiazole 1,1-dioxide] | > 10000 nM | > 10000 nM
3 | CC(C)(C)c1cnc(C2CCC(c3cc(Nc4cc5c(cc4F)S(=O)(=O)NC5)n[nH]3)C2)o1 (single isomer, unassigned) [Example 17c, 5-((5-(3-(5-(tert-butyl)oxazol-2-yl)cyclopentyl)-1H-pyrazol-3-yl)amino)-6-fluoro-2,3-dihydrobenzo[d]isothiazole 1,1-dioxide] | > 10000 nM | 102 nM
4 | CC(C)(C)c1ccc(C2CCC(c3cc(Nc4ccc5c(c4F)CS(=O)(=O)N5)n[nH]3)C2)o1 (stereo not drawn) [Example 153, 5-((5-(3-(5-(tert-butyl)furan-2-yl)cyclopentyl)-1H-pyrazol-3-yl)amino)-4-fluoro-1,3-dihydrobenzo[c]isothiazole 2,2-dioxide] | > 10000 nM | 1020 nM
5 | Cc1nc(C2CCC(c3cc(Nc4ccc(S(N)(=O)=O)cc4F)n[nH]3)C2)oc1C(C)(C)C (stereo not drawn) [Example 8, 4-((5-(3-(5-(tert-butyl)-4-methyloxazol-2-yl)cyclopentyl)-1H-pyrazol-3-yl)amino)-3-fluorobenzenesulfonamide] | > 10000 nM | 79 nM
6 | CC(C)(O)c1cnc(C2CCC(c3cc(Nc4ccc5c(c4F)CNS5(=O)=O)n[nH]3)C2)o1 (stereo not drawn) [Example 110, 4-fluoro-5-((5-(3-(5-(2-hydroxypropan-2-yl)oxazol-2-yl)cyclopentyl)-1H-pyrazol-3-yl)amino)-2,3-dihydrobenzo[d]isothiazole 1,1-dioxide] | 7240 nM | 32 nM
7 | O=S1(=O)NCc2c1ccc(Nc1cc(C3CCC(c4cnc(C5CC5)o4)C3)[nH]n1)c2F (stereo not drawn) [Example 106, 5-((5-(3-(2-cyclopropyloxazol-5-yl)cyclopentyl)-1H-pyrazol-3-yl)amino)-4-fluoro-2,3-dihydrobenzo[d]isothiazole 1,1-dioxide] | > 10000 nM | 1050 nM
8 | CC(C)(C)c1cnc(C2CCC(c3cc(Nc4ccc5c(c4F)CS(=O)(=O)C5)n[nH]3)C2)o1 (stereo not drawn) [Example 173, 5-((5-(3-(5-(tert-butyl)oxazol-2-yl)cyclopentyl)-1H-pyrazol-3-yl)amino)-4-fluoro-1,3-dihydrobenzo[c]thiophene 2,2-dioxide] | 198 nM | 2.8 nM
9 | CC(C)(O)c1cnc(C2CCC(c3cc(Nc4ccc5c(c4F)CS(=O)(=O)C5)n[nH]3)C2)o1 (stereo not drawn) [Example 179, 4-fluoro-5-((5-(3-(5-(2-hydroxypropan-2-yl)oxazol-2-yl)cyclopentyl)-1H-pyrazol-3-yl)amino)-1,3-dihydrobenzo[c]thiophene 2,2-dioxide] | 537 nM | 1.5 nM
10 | CC(C)c1cnc(C2CCC(c3cc(Nc4ccc5c(c4F)CS(=O)(=O)N5)n[nH]3)C2)o1 (single isomer, unassigned) [Example 152a, cis-4-fluoro-5-((5-(3-(5-isopropyloxazol-2-yl)cyclopentyl)-1H-pyrazol-3-yl)amino)-1,3-dihydrobenzo[c]isothiazole 2,2-dioxide] | 238 nM | 2.8 nM
11 | CC(C)(C)c1ccnc(C2CCC(c3cc(Nc4ccc(S(N)(=O)=O)cc4F)n[nH]3)C2)n1 (stereo not drawn) [Example 4, 4-((5-(3-(4-(tert-butyl)pyrimidin-2-yl)cyclopentyl)-1H-pyrazol-3-yl)amino)-3-fluorobenzenesulfonamide] | 848 nM | 7.1 nM
12 | CC(C)(C)c1cnnc(C2CCC(c3cc(Nc4cc5c(cc4F)S(=O)(=O)NC5)n[nH]3)C2)c1 (stereo not drawn) [Example 14, 5-((5-(3-(5-(tert-butyl)pyridazin-3-yl)cyclopentyl)-1H-pyrazol-3-yl)amino)-6-fluoro-2,3-dihydrobenzo[d]isothiazole 1,1-dioxide] | > 10000 nM | 369 nM
13 | CC(C)(C)c1cnn([C@@H]2CC[C@H](c3cc(Nc4ccc5c(c4F)CNS5(=O)=O)n[nH]3)C2)c1 (relative stereo) [Example 89, cis-5-((5-(3-(4-(tert-butyl)-1H-pyrazol-1-yl)cyclopentyl)-1H-pyrazol-3-yl)amino)-4-fluoro-2,3-dihydrobenzo[d]isothiazole 1,1-dioxide] | > 10000 nM | 351 nM
14 | CC1(c2cnc(C3CCC(c4cc(Nc5ccc6c(c5F)CNS6(=O)=O)n[nH]4)C3)o2)CC1 (stereo not drawn) [Example 112, 4-fluoro-5-((5-(3-(5-(1-methylcyclopropyl)oxazol-2-yl)cyclopentyl)-1H-pyrazol-3-yl)amino)-2,3-dihydrobenzo[d]isothiazole 1,1-dioxide] | 6850 nM | 16 nM
15 | CN1c2ccc(Nc3cc(C4CCC(c5ncc(C(C)(C)C)o5)C4)[nH]n3)cc2CS1(=O)=O (stereo not drawn) [Example 140, 5-((5-(3-(5-(tert-butyl)oxazol-2-yl)cyclopentyl)-1H-pyrazol-3-yl)amino)-1-methyl-1,3-dihydrobenzo[c]isothiazole 2,2-dioxide] | 624 nM | 6 nM
16 | CC(C)(C)c1nnc([C@H]2CC[C@H](c3cc(Nc4ccc5c(c4F)CS(=O)(=O)N5)n[nH]3)C2)o1 (relative stereo) [Example 147, trans-5-((5-(3-(5-(tert-butyl)-1,3,4-oxadiazol-2-yl)cyclopentyl)-1H-pyrazol-3-yl)amino)-4-fluoro-1,3-dihydrobenzo[c]isothiazole 2,2-dioxide] | > 10000 nM | 851 nM
17 | Cn1ncc(C(C)(C)C)c1O[C@@H]1CC[C@H](c2cc(Nc3ccc4c(c3F)CNS4(=O)=O)n[nH]2)C1 (relative stereo) [Example 72, cis-5-((5-(3-((4-(tert-butyl)-1-methyl-1H-pyrazol-5-yl)oxy)cyclopentyl)-1H-pyrazol-3-yl)amino)-4-fluoro-2,3-dihydrobenzo[d]isothiazole 1,1-dioxide] | > 10000 nM | 5910 nM
18 | CC(C)(C)c1nnc([C@@H]2CC[C@H](c3cc(Nc4ccc5c(c4F)CNS5(=O)=O)n[nH]3)C2)o1 (relative stereo) [Example 96, cis-5-((5-(3-(5-(tert-butyl)-1,3,4-oxadiazol-2-yl)cyclopentyl)-1H-pyrazol-3-yl)amino)-4-fluoro-2,3-dihydrobenzo[d]isothiazole 1,1-dioxide] | > 10000 nM | 314 nM
19 | CC(C)(C)c1cnc(C2CCC(c3cc(Nc4ccc5c(c4)CN=S5(C)=O)n[nH]3)C2)o1 (single isomer, unassigned) [Example 169d, 5-((5-(3-(5-(tert-butyl)oxazol-2-yl)cyclopentyl)-1H-pyrazol-3-yl)amino)-1-methyl-3H-1λ^4-benzo[d]isothiazole 1-oxide] | > 10000 nM | 173 nM
20 | Cc1cc(C(C)(C)C)cc(C2CCC(c3cc(Nc4ccc5c(c4F)CS(=O)(=O)N5)n[nH]3)C2)n1 (stereo not drawn) [Example 164, 5-((5-(3-(4-(tert-butyl)-6-methylpyridin-2-yl)cyclopentyl)-1H-pyrazol-3-yl)amino)-4-fluoro-1,3-dihydrobenzo[c]isothiazole 2,2-dioxide] | > 10000 nM | 285 nM
21 | CC(C)(C)c1coc(C2CCC(c3cc(Nc4ccc5c(c4F)CNS5(=O)=O)n[nH]3)C2)n1 (stereo not drawn) [Example 94, 5-((5-(3-(4-(tert-butyl)oxazol-2-yl)cyclopentyl)-1H-pyrazol-3-yl)amino)-4-fluoro-2,3-dihydrobenzo[d]isothiazole 1,1-dioxide] | > 10000 nM | 417 nM
22 | CC(C)(C)c1cnc(C2CCC(c3cc(Nc4ccc(S(N)(=O)=O)cc4F)n[nH]3)C2)o1 (single isomer, unassigned) [Example 6a, 4-((5-(3-(5-(tert-butyl)oxazol-2-yl)cyclopentyl)-1H-pyrazol-3-yl)amino)-3-fluorobenzenesulfonamide] | 2000 nM | 3 nM
23 | CC(C)(C)c1cccc(C2=CC(c3cc(Nc4ccc5c(c4F)CS(=O)(=O)N5)n[nH]3)CC2)n1 (stereo not drawn) [Example 157, 5-((5-(3-(6-(tert-butyl)pyridin-2-yl)cyclopent-2-en-1-yl)-1H-pyrazol-3-yl)amino)-4-fluoro-1,3-dihydrobenzo[c]isothiazole 2,2-dioxide] | > 10000 nM | > 10000 nM
24 | CC(C)c1cnc(C2CCC(c3cc(Nc4ccc5c(c4)CS(=O)(=O)N5C)n[nH]3)C2)o1 (stereo not drawn) [Example 143, 5-((5-(3-(5-isopropyloxazol-2-yl)cyclopentyl)-1H-pyrazol-3-yl)amino)-1-methyl-1,3-dihydrobenzo[c]isothiazole 2,2-dioxide] | 1320 nM | 14 nM
25 | Cc1nc(C2CCC(c3cc(Nc4ccc5c(c4F)CNS5(=O)=O)n[nH]3)C2)oc1C(C)(C)C (stereo not drawn) [Example 111, 5-((5-(3-(5-(tert-butyl)-4-methyloxazol-2-yl)cyclopentyl)-1H-pyrazol-3-yl)amino)-4-fluoro-2,3-dihydrobenzo[d]isothiazole 1,1-dioxide] | 4470 nM | 17 nM
26 | CC(C)(C)c1ncccc1O[C@@H]1CC[C@H](c2cc(Nc3ccc4c(c3)CS(=O)(=O)N4)n[nH]2)C1 (relative stereo) [Example 139, cis-5-((5-(3-((2-(tert-butyl)pyridin-3-yl)oxy)cyclopentyl)-1H-pyrazol-3-yl)amino)-1,3-dihydrobenzo[c]isothiazole 2,2-dioxide] | 5710 nM | 54 nM
27 | CC(C)(C)c1cc(C2CCC(c3cc(Nc4ccc5c(c4F)CNS5(=O)=O)n[nH]3)C2)ncn1 (stereo not drawn) [Example 130, 5-((5-(3-(6-(tert-butyl)pyrimidin-4-yl)cyclopentyl)-1H-pyrazol-3-yl)amino)-4-fluoro-2,3-dihydrobenzo[d]isothiazole 1,1-dioxide] | > 10000 nM | 2120 nM
